According to the CheMixHub viscosity set:

Assay: xn = mol fraction of the nth substance listed

CCCCCCO + COC(=O)OC
Settings	viscosity [mPa·s]
293.15 K, 100 kPa, x2 = 0.1003	3.53
293.15 K, 100 kPa, x2 = 0.1998	2.47
293.15 K, 100 kPa, x2 = 0.3011	1.87
293.15 K, 100 kPa, x2 = 0.4001	1.51
293.15 K, 100 kPa, x2 = 0.5007	1.24
293.15 K, 100 kPa, x2 = 0.5987	0.95
293.15 K, 100 kPa, x2 = 0.7003	0.77
293.15 K, 100 kPa, x2 = 0.8013	0.71
293.15 K, 100 kPa, x2 = 0.9002	0.61
293.15 K, 101 kPa, x2 = 0.04349	4.578
293.15 K, 101 kPa, x2 = 0.1014	3.717
293.15 K, 101 kPa, x2 = 0.1936	2.761
293.15 K, 101 kPa, x2 = 0.3033	2.046
293.15 K, 101 kPa, x2 = 0.4078	1.6
293.15 K, 101 kPa, x2 = 0.5026	1.302
293.15 K, 101 kPa, x2 = 0.602	1.06
293.15 K, 101 kPa, x2 = 0.699	0.883
293.15 K, 101 kPa, x2 = 0.8055	0.756
293.15 K, 101 kPa, x2 = 0.9079	0.685
293.15 K, 101 kPa, x2 = 0.9562	0.648
298.15 K, 100 kPa, x2 = 0.1003	3.06
298.15 K, 100 kPa, x2 = 0.1998	2.17
298.15 K, 100 kPa, x2 = 0.3011	1.66
298.15 K, 100 kPa, x2 = 0.4001	1.34
298.15 K, 100 kPa, x2 = 0.5007	1.12
298.15 K, 100 kPa, x2 = 0.5987	0.92
298.15 K, 100 kPa, x2 = 0.7003	0.77
298.15 K, 100 kPa, x2 = 0.8013	0.66
298.15 K, 100 kPa, x2 = 0.9002	0.57
303.15 K, 100 kPa, x2 = 0.1003	2.67
303.15 K, 100 kPa, x2 = 0.1998	1.93
303.15 K, 100 kPa, x2 = 0.3011	1.48
303.15 K, 100 kPa, x2 = 0.4001	1.23
303.15 K, 100 kPa, x2 = 0.5007	1.02
303.15 K, 100 kPa, x2 = 0.5987	0.84
303.15 K, 100 kPa, x2 = 0.7003	0.72
303.15 K, 100 kPa, x2 = 0.8013	0.61
303.15 K, 100 kPa, x2 = 0.9002	0.54
303.15 K, 101 kPa, x2 = 0.04993	3.355
303.15 K, 101 kPa, x2 = 0.1121	2.759
303.15 K, 101 kPa, x2 = 0.1985	2.135
303.15 K, 101 kPa, x2 = 0.3013	1.623
303.15 K, 101 kPa, x2 = 0.4548	1.153
303.15 K, 101 kPa, x2 = 0.4939	1.069
303.15 K, 101 kPa, x2 = 0.5585	0.951
303.15 K, 101 kPa, x2 = 0.7038	0.747
303.15 K, 101 kPa, x2 = 0.7977	0.649
303.15 K, 101 kPa, x2 = 0.9079	0.571
303.15 K, 101 kPa, x2 = 0.9534	0.548
308.15 K, 100 kPa, x2 = 0.1003	2.35
308.15 K, 100 kPa, x2 = 0.1998	1.71
308.15 K, 100 kPa, x2 = 0.3011	1.33
308.15 K, 100 kPa, x2 = 0.4001	1.07
308.15 K, 100 kPa, x2 = 0.5007	0.93
308.15 K, 100 kPa, x2 = 0.5987	0.78
308.15 K, 100 kPa, x2 = 0.7003	0.67
308.15 K, 100 kPa, x2 = 0.8013	0.57
308.15 K, 100 kPa, x2 = 0.9002	0.53
313.15 K, 100 kPa, x2 = 0.1003	2.07
313.15 K, 100 kPa, x2 = 0.1998	1.53
313.15 K, 100 kPa, x2 = 0.3011	1.21
313.15 K, 100 kPa, x2 = 0.4001	0.99
313.15 K, 100 kPa, x2 = 0.5007	0.86
313.15 K, 100 kPa, x2 = 0.5987	0.72
313.15 K, 100 kPa, x2 = 0.7003	0.62
313.15 K, 100 kPa, x2 = 0.8013	0.53
313.15 K, 100 kPa, x2 = 0.9002	0.48
313.15 K, 101 kPa, x2 = 0.05023	2.521
313.15 K, 101 kPa, x2 = 0.1223	2.039
313.15 K, 101 kPa, x2 = 0.2131	1.599
313.15 K, 101 kPa, x2 = 0.3291	1.223
313.15 K, 101 kPa, x2 = 0.4005	1.061
313.15 K, 101 kPa, x2 = 0.4874	0.911
313.15 K, 101 kPa, x2 = 0.5997	0.76
313.15 K, 101 kPa, x2 = 0.6524	0.713
313.15 K, 101 kPa, x2 = 0.7994	0.572
313.15 K, 101 kPa, x2 = 0.9089	0.514
313.15 K, 101 kPa, x2 = 0.9495	0.501
318.15 K, 100 kPa, x2 = 0.1003	1.83
318.15 K, 100 kPa, x2 = 0.1998	1.37
318.15 K, 100 kPa, x2 = 0.3011	1.09
318.15 K, 100 kPa, x2 = 0.4001	0.91
318.15 K, 100 kPa, x2 = 0.5007	0.79
318.15 K, 100 kPa, x2 = 0.5987	0.67
318.15 K, 100 kPa, x2 = 0.7003	0.58
318.15 K, 100 kPa, x2 = 0.8013	0.51
318.15 K, 100 kPa, x2 = 0.9002	0.46
323.15 K, 100 kPa, x2 = 0.1003	1.63
323.15 K, 100 kPa, x2 = 0.1998	1.24
323.15 K, 100 kPa, x2 = 0.3011	0.99
323.15 K, 100 kPa, x2 = 0.4001	0.84
323.15 K, 100 kPa, x2 = 0.5007	0.73
323.15 K, 100 kPa, x2 = 0.5987	0.63
323.15 K, 100 kPa, x2 = 0.7003	0.55
323.15 K, 100 kPa, x2 = 0.8013	0.48
323.15 K, 100 kPa, x2 = 0.9002	0.43
